How the values were obtained:
[1] = test system: TEC-family kinases (ITK, TEC, and TXK); experiment: Cellular IL-2 production assay in Jurkat cells; format: cell-based; details: Homo sapiens, CD3/CD28 stimulation, read-out: IC50, IL2-Production
Method: The cellular IL-2 Production assay was carried out using Jurkat cells. Upon CD3/CD28 stimulation overnight in the presence of various concentrations of compound, the IL-2 content in the conditioned media was measured by ELISA, and compound IC50 was determined.

[2] = test system: mouse CD4+ T cells; experiment: Mouse CD4 T cell proliferation assay; format: cell-based; details: Cellular
[3] = test system: primary human CD4+ T cells; experiment: Human CD4 T cell proliferation assay; format: cell-based; details: Cellular
Method: In the Human CD4 T cell assay, primary human CD4+ T cells isolated from a leukopak were cultured in the presence of anti-CD3/anti-CD28 beads to stimulate T cell proliferation. After 4 days, cell viability was measured using Cell Titer Glo.

[4] = test system: mouse B cells; experiment: Mouse B cell proliferation assay; format: cell-based; details: Cellular
Method: In the Mouse B cell assay, B cells are purified from mouse splenocytes and plated in the tissue culture plates with supplement of anti-IgM and m-IL4. […] After 3 days, cell viability was measured using Cell Titer Glo.

[5] = test system: TMD-8 cells (BTK); experiment: BTK-dependent TMD-8 cell proliferation assay; format: cell-based; details: Homo sapiens, TMD8, Cellular
Method: After 3 days, cell viability was measured using Cell Titer Glo.

[6] = biological target: T1, TEC (Homo sapiens, UniProt P42680); experiment: TEC biochemical assay (Caliper LabChip)
T1 sequence (P42680 1-631): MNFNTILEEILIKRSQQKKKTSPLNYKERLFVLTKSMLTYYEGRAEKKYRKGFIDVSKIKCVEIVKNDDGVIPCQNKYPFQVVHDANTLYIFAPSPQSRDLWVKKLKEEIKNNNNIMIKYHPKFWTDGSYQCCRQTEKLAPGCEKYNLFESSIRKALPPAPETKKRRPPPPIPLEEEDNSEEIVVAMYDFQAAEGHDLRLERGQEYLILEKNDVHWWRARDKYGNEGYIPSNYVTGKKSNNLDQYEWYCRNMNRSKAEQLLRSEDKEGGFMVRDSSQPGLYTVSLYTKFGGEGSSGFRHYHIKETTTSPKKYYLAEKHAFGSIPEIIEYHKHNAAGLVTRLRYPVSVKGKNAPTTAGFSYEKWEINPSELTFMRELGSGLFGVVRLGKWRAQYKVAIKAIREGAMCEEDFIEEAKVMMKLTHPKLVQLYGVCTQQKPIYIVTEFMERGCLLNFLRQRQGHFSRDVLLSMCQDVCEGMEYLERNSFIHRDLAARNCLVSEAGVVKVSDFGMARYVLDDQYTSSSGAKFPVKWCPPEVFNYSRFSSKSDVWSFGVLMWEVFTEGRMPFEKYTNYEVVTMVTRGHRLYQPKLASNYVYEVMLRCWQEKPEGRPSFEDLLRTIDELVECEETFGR

[7] = biological target: T2, TXK (Homo sapiens, UniProt P42681); experiment: TXK biochemical assay (Caliper LabChip)
T2 sequence (P42681 1-527): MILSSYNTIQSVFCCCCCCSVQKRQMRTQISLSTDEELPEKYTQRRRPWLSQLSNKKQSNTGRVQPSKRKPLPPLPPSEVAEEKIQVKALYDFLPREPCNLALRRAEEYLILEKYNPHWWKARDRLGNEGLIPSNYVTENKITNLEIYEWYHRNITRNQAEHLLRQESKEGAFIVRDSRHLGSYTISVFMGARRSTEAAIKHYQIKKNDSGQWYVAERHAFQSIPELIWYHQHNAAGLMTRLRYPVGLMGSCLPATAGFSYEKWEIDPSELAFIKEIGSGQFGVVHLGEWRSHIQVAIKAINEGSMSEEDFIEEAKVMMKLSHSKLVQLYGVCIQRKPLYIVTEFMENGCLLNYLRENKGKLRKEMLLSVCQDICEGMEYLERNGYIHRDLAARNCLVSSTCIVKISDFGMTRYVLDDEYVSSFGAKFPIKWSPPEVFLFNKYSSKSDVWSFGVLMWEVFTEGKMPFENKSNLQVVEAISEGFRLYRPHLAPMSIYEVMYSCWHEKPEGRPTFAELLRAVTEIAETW

[8] = test system: T-cell dependent antibody response; experiment: T-cell dependent antibody response (TDAR) assay with KLH; details: for anti-KLH IgG mean percent difference compared to vehicle controls / anti-KLH IgM mean percent difference compared to vehicle controls: 30 mg/kg/day
[9] = biological target: human PD-1 protein (Homo sapiens, UniProt Q15116); experiment: Biacore binding on human PD-1 protein; details: Biacore method
Method: The binding of an exemplary humanized anti-PD-1 antibodies including Clone B and Clone E as shown in Table 1 on human PD-1 protein was measured using Biacore method.

[10] = Iso-electric focussing (Novex IEF) analysis; format: physicochemical; details: estimated from staining positions against the IEF 3-10 marker
Method: Non-reduced samples of Protein A purified antibody were electrophoresed as described below.
5 μg of Protein A purified samples were electrophoresed on a 1.0 mm Novex pH 3-10 gradient gel (Invitrogen, EC66552BOX) using manufacturers recommended running conditions. A 10 μl aliquot of IEF pH 3-10 markers (Invitrogen, 39212-01) was included on the gel. Once electrophoresed, gels were fixed with 10% TCA solution for 30 min and then stained with InstantBlue (TripleRed, ISB01L) over night at room temperature. Images of the stained gels were analysed on a BioSpectrum Imaging System (UVP).

[11] = Pharmacokinetic (PK) modeling of flat dosing schedules
[12] = biological target: cynomolgus PD-1 protein (cynomolgus, UniProt B0LAJ3 25-170); experiment: Biacore, cynomolgus PD-1
[13] = biological target: T3, human PD-1 protein (human, UniProt Q15116 25-167, limits assumed); experiment: Biacore, human PD-1 protein
T3 construct: Soluble protein in the Biacore assay

[14] = biological target: T4, human PD-1 expressed on 300.19 cells (human, UniProt Q15116 25-288); experiment: blocking of PD-L1 binding on human PD-1-expressing 300.19 cells; competitor PD-L1
T4 construct: whole, on cells; also called human PD-1-expressing 300.19 cells
T4 sequence (Q15116 25-288): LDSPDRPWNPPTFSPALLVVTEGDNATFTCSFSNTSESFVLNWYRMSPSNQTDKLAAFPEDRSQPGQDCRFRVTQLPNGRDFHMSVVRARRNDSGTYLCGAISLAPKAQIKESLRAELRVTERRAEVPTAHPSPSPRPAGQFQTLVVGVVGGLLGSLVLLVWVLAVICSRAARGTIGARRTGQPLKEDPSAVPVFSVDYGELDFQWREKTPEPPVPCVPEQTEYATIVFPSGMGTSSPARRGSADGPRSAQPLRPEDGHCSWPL

Chain of human PD-1 protein (Homo sapiens, UniProt Q15116) (Q15116 25-288): as above
Chain of cynomolgus PD-1 protein (B0LAJ3 entry or part of it limits assumed): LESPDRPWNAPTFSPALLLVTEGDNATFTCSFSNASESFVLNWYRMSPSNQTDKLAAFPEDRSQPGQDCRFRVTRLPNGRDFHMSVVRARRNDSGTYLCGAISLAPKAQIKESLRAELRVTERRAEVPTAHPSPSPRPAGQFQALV
T3 sequence (Q15116 25-167 limits assumed): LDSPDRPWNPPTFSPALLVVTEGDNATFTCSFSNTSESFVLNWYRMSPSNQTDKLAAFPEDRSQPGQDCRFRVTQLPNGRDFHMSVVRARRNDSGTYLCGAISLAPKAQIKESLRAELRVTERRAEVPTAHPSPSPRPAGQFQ

Molecule `Cc1cc(C(=O)Nc2nc3cccc(Cl)c3n2[C@@H]2CCCCN(C(=O)/C=C/CN(C)C)C2)ccn1` [Compound A, (R,E)-N-(7-chloro-1-(1-(4-(dimethylamino)but-2-enoyl)azepan-3-yl)-1Hbenzo[d]imidazol-2-yl)-2-methylisonicotinamide] has an IC50 [1] of 21 nM, an IC50 [2] of 107 nM and an IC50 [3] of 140 nM. The IC50 [4] was 295 nM, the IC50 [5] was 224 nM and the IC50 [6] was 0.9 nM. The “IC50, TEC” value ([6]; Biochemical) was “single digit nM”, the IC50 [7] was 2 nM and the “IC50, TXK” value ([7]; Biochemical) was “single digit nM”. The “anti-KLH IgG mean percent difference compared to vehicle controls” value (“anti-KLH IgG mean percent difference” below) ([8]; female rats, study day 19) was −96%, the “anti-KLH IgM mean percent difference compared to vehicle controls” value (from here on “anti-KLH IgM mean percent difference”) ([8]; female rats, study day 19) was −88% and the “anti-KLH IgG mean percent difference” value ([8]; female rats, study day 21) was −98%. The “anti-KLH IgM mean percent difference” value ([8]; female rats, study day 21) was −75%, the “anti-KLH IgG mean percent difference” value ([8]; female rats, study day 23) was −97% and the “anti-KLH IgM mean percent difference” value ([8]; female rats, study day 23) was −71%. The “anti-KLH IgG mean percent difference” value ([8]; female rats, study day 25) was −96%, the “anti-KLH IgM mean percent difference” value ([8]; female rats, study day 25) was −63% and the “anti-KLH IgG mean percent difference” value ([8]; female rats, study day 36) was −69%. For the same molecule, the “anti-KLH IgM mean percent difference” value ([8]; female rats, study day 36) was −67%, the “decrease of anti-KLH antibody production after withdrawal of treatment” value ([8]; male and female rats, recovery day 42 and 53) was “reversible” and the “anti-KLH IgG mean percent difference” value ([8]; male rats, study day 19) was −78%. The “anti-KLH IgM mean percent difference” value ([8]; male rats, study day 19) was −67%, the “anti-KLH IgG mean percent difference” value ([8]; male rats, study day 21) was −84% and the “anti-KLH IgG mean percent difference” value ([8]; male rats, study day 23) was −80%. The “anti-KLH IgG mean percent difference” value ([8]; male rats, study day 25) was −83%.

For “BAP049-Clone E: humanized anti-programmed death-1 (PD-1) IgG4 monoclonal antibody; sequences in Table 1”, the Ka [9] was 278000 M⁻¹ s⁻¹, the Kd ([9]; rate constant) was 0.000213 s⁻¹ and the “Basic charge isoforms (pI)” value [10] was 7.55. The “pI of predominant charge isoform” value [10] was 7.5, the Half-Life ([11]; 46 patients in PK dataset) was 20 [17, 23] days and the “IIV of CL” value ([11]; 46 patients in PK dataset) was 62%. For the same molecule, the “IIV of Half-Life” value ([11]; 46 patients in PK dataset) was 64%, the “IIV of Volume of distribution at SS” value ([11]; 46 patients in PK dataset) was 22% and the “Volume of distribution at SS” value ([11]; 46 patients in PK dataset) was 7.2 [6.5, 7.9] L. The “patients with Cmin above EC50” value ([11]; flat dose) was “Over 99.5%”, the “patients with Cmin above EC90” value ([11]; flat dose) was “over 93%” and the CL ([11]; flat dosing schedules, 46 patients in PK dataset) was 10.9 [8.9, 13.2] mL/h.

B1: BAP049-Clone-E (antibody, human IgG4 S228P, kappa, V domains shown)
VH: EVQLVQSGAEVKKPGESLRISCKGSGYTFTTYWMHWVRQATGQGLEWMGNIYPGTGGSNFDEKFKNRVTITADKSTSTAYMELSSLRSEDTAVYYCTRWTTGTGAYWGQGTTVTVSS
VL: EIVLTQSPATLSLSPGERATLSCKSSQSLLDSGNQKNFLTWYQQKPGQAPRLLIYWASTRESGVPSRFSGSGSGTDFTFTISSLEAEDAATYYCQNDYSYPYTFGQGTKVEIKR
notes: Humanized IgG4(S228P)/kappa; also called Antibody B; exemplary humanized anti-PD-1 antibody
With B1 the Kd [12] was 0.093 nM, the Kd [13] was 0.0827 nM and the IC50 [14] was 0.94 nM.
